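Five concentrations, 48 hours, 96-well plates. At the GI50, growth is halved. TGI is the concentration that stops growth completely.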
How the values were obtained:
Assay in all cases: NCI-60 cell line screen, 48 h
CCRF-CEM leukemia = tested on: CCRF-CEM leukemia
KM12 colon = tested on: KM12 colon
OVCAR-8 ovarian = tested on: OVCAR-8 ovarian
HOP-92 NSCLC = tested on: HOP-92 NSCLC
SNB-75 CNS = tested on: SNB-75 CNS
MDA-MB-435 = tested on: MDA-MB-435
MALME-3M melanoma = tested on: MALME-3M melanoma
SNB-19 CNS = tested on: SNB-19 CNS
HCC-2998 colon = tested on: HCC-2998 colon
HT29 colon = tested on: HT29 colon

Structure (SMILES)	TGI (CCRF-CEM leukemia) [µM]	TGI (KM12 colon) [µM]	TGI (OVCAR-8 ovarian) [µM]	TGI (HOP-92 NSCLC) [µM]	TGI (SNB-75 CNS) [µM]	TGI (MDA-MB-435) [µM]	TGI (MALME-3M melanoma) [µM]	TGI (SNB-19 CNS) [µM]	TGI (HCC-2998 colon) [µM]	TGI (HT29 colon) [µM]	GI50 (CCRF-CEM leukemia) [µM]	GI50 (KM12 colon) [µM]	GI50 (OVCAR-8 ovarian) [µM]	GI50 (HOP-92 NSCLC) [µM]	GI50 (SNB-75 CNS) [µM]	GI50 (MDA-MB-435) [µM]	GI50 (HT29 colon) [µM]	GI50 (MALME-3M melanoma) [µM]	GI50 (SNB-19 CNS) [µM]	GI50 (HCC-2998 colon) [µM]
C=C(C)[C@@H]1CCC2=C[C@H](C/C(C)=C\C3=CC(C)=C(O3)[C@H]1O)OC2=O	> 100	> 100	> 100	> 100	> 100	> 100	> 100	> 100	> 100	–	–	–	–	–	–	–	–	–	–	–
CNC1Cc2c[nH]c3cccc(c23)C12C=C(C)C(=O)O2 (stereo unspecified)	> 100	> 100	> 100	> 100	> 100	> 100	> 100	> 100	> 100	> 100	–	–	–	–	–	–	–	–	–	–
Cc1cc2c(c(O)c1-c1c(C)cc(O)c3c1C(=O)C=CC3=O)C(=O)C=CC2=O	–	32.9	–	–	84.9	–	–	> 56.8	10.1	–	–	–	–	–	–	–	–	–	–	–
C[C@@H]1C(=O)O[C@H]1[C@H](O)CO	> 100	> 100	> 100	> 100	> 100	> 100	–	> 100	> 100	–	–	–	–	–	–	–	–	–	–	–
C[Si](C)(C)c1ccc(-c2c3ccc(-c4cc(Br)cc(Br)c4)nc3nc3nc(-c4cc(Br)cc(Br)c4)ccc23)cc1	–	> 100	–	> 100	> 100	> 100	> 100	> 100	> 100	–	–	–	–	–	–	–	–	–	–	–
COc1cc(/C=C2\N=C(c3ccccc3)N(c3ccc(C(=O)c4ccccc4)cc3N3C(=O)/C(=C/c4ccc(O)c(OC)c4)N=C3c3ccccc3)C2=O)ccc1O	> 100	22.4	32.5	> 100	54.3	8.16	–	> 100	9.69	51.5	–	–	–	–	–	–	–	–	–	–
O=C1c2cccnc2C(=O)c2c1c(C(=O)OCCN1CCCCC1)c1ccccn21	5	9.02	1.02	0.285	0.188	0.829	0.424	0.498	1.57	1.71	0.294	0.16	0.0344	0.0426	0.0189	0.0804	0.12	0.0847	0.013	0.0788
C=C1C(=O)O[C@@H]2/C=C(\C)CC/C=C(\C)CC[C@@]12O	0.607	25	5.18	3.63	–	7.29	3.05	16.9	12.7	10.9	–	–	–	–	–	–	–	–	–	–

— PubChem BioAssay (NCI)
